For test [1], the system named is HiBiT-tagged MYB protein in K562 cells. Put plainly: HiBiT protein abundance assay, MYB. It counts as cell-based, human. To be noted: HiBiT-modified K562 cells, 24 hours, luminescence. In short, it runs like this: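 K562 lines with the endogenous target HiBiT-tagged, seeded in IMDM+1% FBS, got a 10-point 3-fold dilution series (top final 10 μM, DMSO ≤0.25%) for 24 hours at 37° C. Lytic LgBiT luminescence was normalized against unmodified-K562 and DMSO-only controls, and IC50 was interpolated at 50% from a four-parameter logistic fit.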

The subject of the next test is HTT mRNA. As to the kind of experiment: Splicing RT-qPCR assay, HTT canonical (CJ) and alternative (AJ) junction mRNA. The format is cell-based. The conditions noted are these: Homo sapiens, A673 or K562 cells, 24 hours treatment. A digest of the protocol:
(§1)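 Compound-treated A673 or K562 cells (11-point 3-fold dilution, top dose 10 uM final, DMSO ≤0.25%) were incubated for 24 h at 37° C. Lysates underwent one-step RT-qPCR for canonical and alternative-exon junction isoforms. Normalization used PPIA for A673 and GAPDH or GUSB for K562.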

In a further test the test system is MYB mRNA. As to the kind of experiment: Splicing RT-qPCR assay, MYB canonical (CJ) and alternative (AJ) junction mRNA. The format is cell-based. The conditions noted are these: Homo sapiens, A673 or K562 cells, 24 hours treatment. In short, it runs like this: as §1
In general terms: Quantitative PCR measures a nucleic acid by following its amplification.

Bounds are passed on as bounds.

As to `Cc1cn2cc(-c3nc4cnn(C5CCNCC5)c(=O)c4s3)nc(C)c2n1` [Compound 812, 2-(2,8-dimethylimidazo[1,2-a]pyrazin-6-yl)-6-(piperidin-4-yl)thiazolo[4,5-d]pyridazin-7(6H)-one], the IC50 is 0.1 to 1 µM in test [1], more than 10 µM in the test with HTT mRNA (decrease in CJ mRNA) and more than 10 µM in the test with MYB mRNA (decrease in CJ mRNA). For the same molecule, the AC50 in the test with HTT mRNA (increase in AJ mRNA) and in the test on MYB mRNA (increase in AJ mRNA) was more than 10 µM throughout.

Broadly, the IC50 is the point on the concentration scale where inhibition reaches its midpoint. Broadly, the AC50 is the concentration at which the activity in the assay is half-maximal. A lower AC50 goes with greater potency.

(Values after patent US20240366612A1, “COMPOUNDS AND METHODS FOR MODULATING NUCLEIC ACID SPLICING” (REMIX THERAPEUTICS INC., priority 2021, published 2024).)
